Laboratory results taken from the NIST ThermoML archive (doi:10.1021/je060271a).

Settings: 323.15 K, Liquid, Vibrating tube method

CCCCCCCC(=O)OCC(COC(=O)CCCCCCC)(COC(=O)CCCCCCC)COC(=O)CCCCCCC [pentaerythritol tetraoctanoate]
Settings	mass density [kg/m3]
7680.3 kPa	945.8
7700.7 kPa	945.8
7720.9 kPa	945.7
7748.8 kPa	945.9
7769.4 kPa	945.7
7790.4 kPa	945.9
7811.3 kPa	946
7832.2 kPa	945.9
7857.7 kPa	945.9
7878.8 kPa	945.8
7900.5 kPa	945.9
7922.1 kPa	946
7947.7 kPa	946
7968.9 kPa	945.8
7990.6 kPa	946
8017 kPa	946
8039.8 kPa	946
8061.6 kPa	946.2
8084.3 kPa	946.1
8107.1 kPa	946.1
8134 kPa	946.1
8156.6 kPa	946
8179.4 kPa	946.1
8206.5 kPa	946
8229.4 kPa	946.2
8252.6 kPa	946.2
8275.8 kPa	946.2
8303.6 kPa	946.2
8327.1 kPa	946.2
8355.7 kPa	946.2
8379.5 kPa	946.3
8404.2 kPa	946.3
8428.3 kPa	946.3
8452.5 kPa	946.3
8482 kPa	946.4
8506.8 kPa	946.2
8531.5 kPa	946.4
8560.6 kPa	946.4
8585.3 kPa	946.5
8610.8 kPa	946.4
8640.7 kPa	946.4
8666 kPa	946.4
8691.5 kPa	946.4
8722.7 kPa	946.4
8748.4 kPa	946.5
8774.8 kPa	946.4
8806.4 kPa	946.5
8832.8 kPa	946.4
8859.7 kPa	946.6
8886 kPa	946.5
8918.8 kPa	946.5
8945.9 kPa	946.6
8972.8 kPa	946.7
9006 kPa	946.7
9034.1 kPa	946.6
9062.8 kPa	946.7
9092.9 kPa	946.7
9121.3 kPa	946.8
9155.1 kPa	946.7
9183.5 kPa	946.9
9212.7 kPa	946.8
9247.8 kPa	946.8
9276.8 kPa	946.9
9311.6 kPa	946.9
9341.2 kPa	946.9
9371.1 kPa	946.9
9401 kPa	946.9
9437.9 kPa	946.9
9469.8 kPa	947
9503.2 kPa	946.9
9534 kPa	947.1
9570.9 kPa	946.9
9602.4 kPa	947
9633.9 kPa	947
9665.6 kPa	947.2
9704.2 kPa	947.1
9736 kPa	947.1
9774.4 kPa	947.2
9806.9 kPa	947.2
9834 kPa	947.1
9860.5 kPa	947.3
9901 kPa	947.3
9949.2 kPa	947.4
9984 kPa	947.3
10026 kPa	947.2
10059 kPa	947.3
10090 kPa	947.3
10128 kPa	947.3
10160 kPa	947.4
10192 kPa	947.5
10231 kPa	947.6
10264 kPa	947.5
10297 kPa	947.6
10337 kPa	947.5
10372 kPa	947.6
10405 kPa	947.5
10435 kPa	947.6
10467 kPa	947.6
10494 kPa	947.6
10520 kPa	947.7
10553 kPa	947.7
10580 kPa	947.7
10608 kPa	947.6
10643 kPa	947.8
10672 kPa	947.8
10695 kPa	947.7
10719 kPa	947.8
10739 kPa	947.8
10759 kPa	947.6
10779 kPa	947.8
10802 kPa	947.8
10822 kPa	947.8
10847 kPa	947.8
10867 kPa	947.8
10887 kPa	948
10911 kPa	947.9
10932 kPa	947.8
10948 kPa	947.9
10977 kPa	947.9
10997 kPa	948
11019 kPa	948.1
11040 kPa	948.1
11065 kPa	948
11086 kPa	948
11111 kPa	948
11132 kPa	948.1
11153 kPa	948.1
11175 kPa	948.1
11200 kPa	948.1
11222 kPa	948.1
11248 kPa	948.1
11270 kPa	948.1
11292 kPa	948.1
11319 kPa	948.1
11341 kPa	948.1
11362 kPa	948.1
11384 kPa	948.3
11411 kPa	948.3
11433 kPa	948.2
11460 kPa	948.2
11483 kPa	948.3
11506 kPa	948.3
11533 kPa	948.3
11555 kPa	948.4
11579 kPa	948.2
11607 kPa	948.3
11626 kPa	948.3
11654 kPa	948.4
11678 kPa	948.2
11701 kPa	948.4
11725 kPa	948.5
11744 kPa	948.5
11768 kPa	948.4
11792 kPa	948.5
11831 kPa	948.4
11855 kPa	948.5
11880 kPa	948.5
11909 kPa	948.5
11935 kPa	948.6
11961 kPa	948.6
11986 kPa	948.6
12010 kPa	948.7
12041 kPa	948.6
12065 kPa	948.7
12095 kPa	948.6
12120 kPa	948.8
12146 kPa	948.6
12176 kPa	948.6
12202 kPa	948.7
12228 kPa	948.6
12255 kPa	948.7
12286 kPa	948.8
12313 kPa	948.8
12339 kPa	948.9
12456 kPa	948.9
12482 kPa	948.9
12510 kPa	948.9
12537 kPa	948.9
12570 kPa	949
12598 kPa	948.9
12626 kPa	949
12660 kPa	949
12688 kPa	948.9
12716 kPa	949
12744 kPa	949
12777 kPa	949
12805 kPa	949.1
12839 kPa	949
12868 kPa	949.1
12897 kPa	949.2
12932 kPa	949.2
12961 kPa	949.2
12990 kPa	949.1
13026 kPa	949.2
13056 kPa	949.3
13080 kPa	949.2
13104 kPa	949.2
13134 kPa	949.3
13170 kPa	949.2
13212 kPa	949.4
13248 kPa	949.4
13279 kPa	949.3
13310 kPa	949.4
13347 kPa	949.3
13378 kPa	949.4
13409 kPa	949.6
13447 kPa	949.6
13479 kPa	949.6
13511 kPa	949.5
13543 kPa	949.5
13581 kPa	949.7
13614 kPa	949.7
13652 kPa	949.6
13685 kPa	949.7
13717 kPa	949.6
13756 kPa	949.7
13790 kPa	949.6
13823 kPa	949.7
13863 kPa	949.7
13897 kPa	949.9
13932 kPa	949.7
13965 kPa	949.8
14007 kPa	949.9
14041 kPa	949.7
14076 kPa	949.9
14118 kPa	950
14152 kPa	949.9
14187 kPa	950
14230 kPa	949.9
14266 kPa	950
14301 kPa	950.1
14345 kPa	950.1
14376 kPa	950.2
14414 kPa	950.2
14452 kPa	950.1
14505 kPa	950.1
14544 kPa	950.2
14573 kPa	950.2
14617 kPa	950.1
14647 kPa	950.2
14671 kPa	950.2
14707 kPa	950.5
14738 kPa	950.3
14780 kPa	950.3
14812 kPa	950.5
14846 kPa	950.5
14877 kPa	950.3
14909 kPa	950.4
14947 kPa	950.5
14979 kPa	950.4
15012 kPa	950.5
15052 kPa	950.5
15085 kPa	950.5
15114 kPa	950.5
15143 kPa	950.5
15167 kPa	950.6
15191 kPa	950.6
15220 kPa	950.7
15246 kPa	950.5
15270 kPa	950.6
15299 kPa	950.6
15324 kPa	950.7
15350 kPa	950.7
15374 kPa	950.8
15404 kPa	950.8
15430 kPa	950.7
15454 kPa	950.8
15485 kPa	950.7
15510 kPa	950.9
15541 kPa	950.8
15567 kPa	950.8
15594 kPa	950.8
15619 kPa	950.8
15650 kPa	950.8
15677 kPa	950.9
15702 kPa	950.9
15734 kPa	950.9
15761 kPa	950.9
15787 kPa	950.9
15818 kPa	951
15845 kPa	951.2
15872 kPa	951
15903 kPa	951.1
15931 kPa	951.1
15954 kPa	951
15980 kPa	951.1
16008 kPa	951.1
16046 kPa	951.2
16073 kPa	951.1
16106 kPa	951.3
16134 kPa	951.1
16161 kPa	951.3
16194 kPa	951.1
16222 kPa	951.3
16245 kPa	951.2
16273 kPa	951.4
